The values that follow come from ChEMBL document CHEMBL1201862, “PubChem BioAssay data set” (2004).

Test systems include NCI-H23; Malme-3M; HOP-62; K562; MDA-MB-231; UACC-62; DU-145; MDA-N; SF-539; EKVX; SK-MEL-5; KM12; RXF 393; HL-60; HCT-116; COLO 205; MCF7; NCI/ADR-RES; OVCAR-3; HOP-92.
Experiment in all cases: growth of human tumour cells (NCI), 48 h

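Interpolation was linear, between the two tested concentrations surrounding the appropriate level; five concentrations were tested over 48 hours in 96-well plates. GI50 is the concentration that inhibits growth by half.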 Activity calls are given as the source filed them. No stated cut-off is given here; in the data, active = GI50 up to about 1.1 µM and inactive = higher.

In the case of `O=Cc1cc(C(=O)OCc2ccccc2)n(S(=O)(=O)c2ccccc2)c1`, the GI50 with NCI-H23 was 20.6 µM (inactive); in the test on Malme-3M, 30.5 µM (inactive); with HOP-62, 13.2 µM (inactive); in the test on K562, 4.51 µM (inactive); in the test with MDA-MB-231, 37.7 µM (inactive); in the test on UACC-62, 11 µM (inactive). Also, the GI50 in the test with DU-145 was 37 µM (inactive); in the test with MDA-N, 5.31 µM (inactive); with SF-539, 12.7 µM (inactive); with EKVX, 23.3 µM (inactive); with SK-MEL-5, 4.84 µM (inactive); in the test with KM12, 13.4 µM (inactive). The GI50 in the test on RXF 393 was 33.7 µM (inactive); in the test on HL-60 it was 5.75 µM (inactive); in the test on HCT-116, 7.5 µM (inactive); in the test with COLO 205 it was 26.1 µM (inactive); with MCF7, 11.7 µM (inactive); in the test with NCI/ADR-RES, 31 µM (inactive). Moreover, the GI50 in the test on OVCAR-3 is 18.7 µM (inactive).
With `CSc1c2c(C)n[nH]c2nn1-c1ccccc1`, the GI50 in the test on NCI-H23 is > 100 µM (inactive); with Malme-3M, > 100 µM (inactive); with K562, 47.5 µM (inactive); in the test on MDA-MB-231, 18.4 µM (inactive); in the test with UACC-62, 68.1 µM (inactive); with DU-145, 88.3 µM (inactive). The GI50 in the test with MDA-N is > 100 µM (inactive); with SF-539, 40.4 µM (inactive); with EKVX, 83.4 µM (inactive); with SK-MEL-5, > 100 µM (inactive); in the test on KM12, 68.7 µM (inactive); in the test on RXF 393, 30.6 µM (inactive). Also, the GI50 in the test with HL-60 is 29.6 µM (inactive); in the test on HCT-116, 45.4 µM (inactive); with COLO 205, 62.2 µM (inactive); in the test with MCF7, 92 µM (inactive); in the test with NCI/ADR-RES, > 100 µM (inactive); in the test with OVCAR-3, 39.3 µM (inactive).
Consider `O=C(CN1CCOCC1)c1ccc2c(c1)oc(=O)n2CCN1CCCC1`, for which the GI50 in the test with NCI-H23, in the test on Malme-3M, in the test with HOP-62, with K562, in the test with MDA-MB-231 and in the test with UACC-62 was > 100 µM (inactive) in each case. In addition, the GI50 in the test on DU-145, with MDA-N, in the test on SF-539, in the test on EKVX, with SK-MEL-5 and in the test on KM12 was > 100 µM (inactive) in each case. Moreover, the GI50 in the test with RXF 393, in the test with HL-60, in the test with HCT-116, with COLO 205, in the test on MCF7 and in the test with NCI/ADR-RES was > 100 µM (inactive) each time. Further, the GI50 with OVCAR-3 is > 100 µM (inactive).
On to `COc1ccc2c(c1)CN1C(=N2)CSC1c1c(Cl)cccc1[N+](=O)[O-]` (stereo unspecified), for which the GI50 is 15.8 µM (inactive) with NCI-H23; 30.2 µM (inactive) in the test on Malme-3M; 34.3 µM (inactive) with HOP-62; 13.6 µM (inactive) with K562; 16.4 µM (inactive) in the test with MDA-MB-231; 20 µM (inactive) with UACC-62. Further, the GI50 in the test with MDA-N is 18.5 µM (inactive); in the test on SF-539, 15.1 µM (inactive); with EKVX, 25.4 µM (inactive); in the test with SK-MEL-5, 12.8 µM (inactive); in the test with KM12 it was 19.5 µM (inactive); with RXF 393, 22.5 µM (inactive). For the same molecule, the GI50 in the test with HL-60 is 11.5 µM (inactive); in the test on HCT-116, 15.6 µM (inactive); in the test with COLO 205, 11.4 µM (inactive); in the test with MCF7, 14.4 µM (inactive); in the test on NCI/ADR-RES it was 15.1 µM (inactive); with HOP-92, 16.7 µM (inactive).
`COc1cc2c3c(n(C)c(=O)c2cc1OC)-c1cc2c(cc1/C3=C\CCCCl)OCO2`: the GI50 with NCI-H23 is 19.9 µM (inactive); in the test with Malme-3M, > 100 µM (inactive); with K562, 23.2 µM (inactive); in the test on MDA-MB-231, 27.3 µM (inactive); with MDA-N it was > 100 µM (inactive); in the test on EKVX, 54.6 µM (inactive). Moreover, the GI50 in the test on SK-MEL-5 was 25.6 µM (inactive); in the test on KM12, 23.8 µM (inactive); in the test with RXF 393, 12.9 µM (inactive); with HL-60 it was 55.1 µM (inactive); in the test with COLO 205, 32.9 µM (inactive); in the test with MCF7, 42 µM (inactive). Further, the GI50 in the test on NCI/ADR-RES is 46.8 µM (inactive); in the test with HOP-92, 82.2 µM (inactive).
As to `Cn1c(=O)c2c(nc3n2CCC(=O)N3CCCCl)n(C)c1=O`, the GI50 in the test with NCI-H23, in the test on HOP-62, in the test on K562, with MDA-MB-231, in the test with UACC-62 and in the test on DU-145 was > 100 µM (inactive) throughout. For the same molecule, the GI50 in the test on MDA-N, with EKVX, in the test with SK-MEL-5, with KM12, in the test on HL-60 and in the test with HCT-116 was > 100 µM (inactive) throughout. The GI50 with COLO 205, in the test on NCI/ADR-RES, in the test on OVCAR-3 and with HOP-92 was > 100 µM (inactive) throughout.
`COC1(C2c3ccccc3CCN2C(=O)OC(C)(C)C)C(=O)C(c2ccccc2)=C1N(C)C` (stereo unspecified): the GI50 was 23.3 µM (inactive) with NCI-H23; 35.2 µM (inactive) with Malme-3M; 37 µM (inactive) in the test with HOP-62; 30.5 µM (inactive) in the test on UACC-62; 55.8 µM (inactive) in the test with DU-145; 21.5 µM (inactive) in the test with MDA-N. The GI50 in the test on SF-539 is 19.1 µM (inactive); with EKVX, 40.6 µM (inactive); in the test with SK-MEL-5 it was 20.7 µM (inactive); with KM12 it was 34.4 µM (inactive); with RXF 393, 30.2 µM (inactive); in the test with HL-60, 19.7 µM (inactive). Moreover, the GI50 with HCT-116 was 25.7 µM (inactive); with COLO 205 it was 18.5 µM (inactive); with MCF7 it was 44.8 µM (inactive); with NCI/ADR-RES it was 21.1 µM (inactive); in the test on OVCAR-3, 27.7 µM (inactive); with HOP-92 it was 44.8 µM (inactive).
As for `COc1ccc(OC)c(NC(=O)C(=O)Nn2c(S)nc3ccccc3c2=O)c1`, the GI50 in the test with NCI-H23, in the test on Malme-3M, in the test with HOP-62, in the test on K562, in the test with MDA-MB-231 and with UACC-62 was > 100 µM (inactive) each time. The GI50 was > 100 µM (inactive) in the test with MDA-N; > 100 µM (inactive) in the test on SF-539; 82.2 µM (inactive) in the test with EKVX; > 100 µM (inactive) with SK-MEL-5; > 100 µM (inactive) in the test on KM12; > 100 µM (inactive) in the test on RXF 393. Moreover, the GI50 in the test with HL-60, in the test on HCT-116, in the test on MCF7, in the test with NCI/ADR-RES, in the test with OVCAR-3 and in the test with HOP-92 was > 100 µM (inactive) in each case.
For `COc1ccc(C2=C(Cl)C(=O)O/C2=C\c2ccc(OC)c(Br)c2)cc1Cl`, the GI50 in the test with NCI-H23 is 16.3 µM (inactive); in the test on Malme-3M, 54 µM (inactive); in the test with HOP-62, 14.6 µM (inactive); in the test on K562, 35.2 µM (inactive); with UACC-62, 22.8 µM (inactive); in the test on DU-145, 74.6 µM (inactive). Also, the GI50 is > 100 µM (inactive) in the test with MDA-N; 16.1 µM (inactive) in the test on SF-539; 31.6 µM (inactive) in the test with EKVX; > 100 µM (inactive) in the test on SK-MEL-5; > 100 µM (inactive) in the test on KM12; 18.3 µM (inactive) with RXF 393. Moreover, the GI50 in the test on HL-60 is > 100 µM (inactive); with HCT-116, 23.5 µM (inactive); in the test on COLO 205, > 100 µM (inactive); with MCF7, 14.6 µM (inactive); in the test on NCI/ADR-RES, 37.8 µM (inactive); in the test on OVCAR-3, 23 µM (inactive). The GI50 in the test with HOP-92 was 24 µM (inactive).
In the case of `CC(=O)O[C@H]1C[C@]2(O)[C@@H]3CC[C@@H]4C[C@@H](O)CC[C@]4(C)[C@H]3CC[C@]2(C)[C@H]1C1=CC(=O)OC1`, the GI50 in the test with NCI-H23 is 0.0366 µM (active); in the test with Malme-3M, 0.036 µM (active); with HOP-62, 0.0493 µM (active); in the test on K562, 0.103 µM (active); in the test on MDA-MB-231, 0.404 µM (active); in the test on UACC-62, 0.211 µM (active). The GI50 in the test on DU-145 was 0.0316 µM (active); with MDA-N it was 0.0867 µM (active); in the test with SF-539 it was 0.0299 µM (active); in the test on EKVX it was 0.0458 µM (active); in the test on SK-MEL-5, 0.0318 µM (active); in the test with KM12, 0.398 µM (active). In addition, the GI50 in the test with RXF 393 is 0.0324 µM (active); in the test with HL-60, 0.0382 µM (active); in the test with HCT-116, 0.033 µM (active); in the test on COLO 205, 0.236 µM (active); with NCI/ADR-RES it was 0.074 µM (active); with OVCAR-3 it was 0.0389 µM (active). Also, the GI50 in the test on HOP-92 is 0.192 µM (active).
Turning to `O=[N+]([O-])C(=C(N1CCOCC1)N1CCOCC1)/C(Cl)=C(\Cl)[N+](=O)[O-]`, the GI50 in the test on NCI-H23 was 3.33 µM (inactive); in the test on Malme-3M it was 1.68 µM (inactive); in the test on HOP-62, 15.7 µM (inactive); with K562, 3.69 µM (inactive); in the test with MDA-MB-231, 3.85 µM (inactive); in the test on UACC-62, 16.6 µM (inactive). Further, the GI50 with DU-145 is 7.45 µM (inactive); in the test with MDA-N it was 9.75 µM (inactive); in the test with SF-539, 11.6 µM (inactive); with EKVX, 8.73 µM (inactive); in the test on SK-MEL-5, 1.66 µM (inactive); in the test with KM12 it was 16.3 µM (inactive). Also, the GI50 was 1.77 µM (inactive) in the test on RXF 393; 2 µM (inactive) with HCT-116; 3.18 µM (inactive) in the test with COLO 205; 2.67 µM (inactive) in the test on MCF7; 21.4 µM (inactive) with NCI/ADR-RES; 4.54 µM (inactive) with OVCAR-3.
